Measurements as given in patent US12270065B2, “Methods for improving titer and purity of beta carotene fermentation in Blakeslea trispora (beta-carotene fermentation method)” (DSM IP Assets B.V., priority 2019, dated 2025).

Experiments:
[1] = tested on: B. trispora; assay: Effect on beta-carotene purity profile with B. trispora (percentage of total carotenoids, HPLC); format: cell-based, Blakeslea trispora; conditions: for 7,8-DH [%] of total carotenoids / BC [%] of total carotenoids: average of two measurements
Method: (§1) Shake flask seed medium MIBLT-1. 23.5 g/l corn meal, 23 g/l soybean meal, 10 g/l glucose, 0.5 g/l KH2PO4 are mixed, the medium pH is adjusted to 6.3, homogenized with an Ultra-Turrax® blender (Ika) for 8 minutes at 13500 rpm, and heated at 70° C. for 45 minutes prior to autoclaving.
(§2) Shake flask production medium MF-BLT-22. 17.5 g/l corn meal, 40 g/l soya flour, 10 g/l soy lecithin, 0.5 g/l KH2PO4, 109 g/l soy oil, optionally 0.28 g/l isoniazid, optionally curcumin (1.0, 0.3, 0.1, 0.03 or 0.01% w/v), are mixed, the medium pH is adjusted to 6.3, is homogenized with an Ultra-Turrax® blender (Ika) for 8 minutes at 13500 rpm, and heated at 70° C. for 45 minutes prior to autoclaving.
(§3) Shake Flask Process. An Erlenmeyer flask (250 or 300 mL volume) containing 30 ml of seed medium (MIBLT-1) is inoculated with spores of B. trispora (−) strain to a concentration of 4.5×10^3 spores/ml. A second Erlenmeyer flask containing 30 ml of MIBLT-1 is inoculated with spores of B. trispora (+) strain to a concentration of 1.5×10^3 spores/ml. The flasks are incubated (220 rpm, 5 cm displacement, 27° C., protected from light) for 48 hr. Three ml of (+) strain culture are added to 30 ml of (−) strain culture, and the mated strains mixture is incubated (220 rpm, 5 cm throw, 27° C., protected from light) for 45 minutes. Erlenmeyer flasks (250 or 300 mL volume) containing 20 ml of production medium (MF-BLT-22) are inoculated with 2 ml of the mated strains mixture. Flasks are incubated (250 rpm, 5 cm displacement, 25° C., protected from light). At 48 hours after inoculation of the 20 mL production cultures, 40 μL of a 50% v/v sterile beta-ionone solution in absolute ethanol is added to each flask. Cultures are returned to the incubator for a total of 7 days post inoculation.
(§4) Sample preparation for HPLC-analysis. Each flask culture is transferred to a 50 mL conical tube and homogenized with an Ultra-Turrax® blender (Ika) for 2 minutes at 24000 rpm. Weigh out one gram of sample into a 100 ml volumetric flask. Eighty milliliters of Solution A are added to the flask and the flask is sonicated for 5 min. The volume is brought to 100 ml with solution A, and the solution is stirred for 60 minutes and allowed to settle for another hour.
(§5) HPLC-analysis. Samples from the above extract (10 μl) are injected as is on a calibrated HPLC using a Suplex-PKB-100 column (Supelco), with a flow rate of 0.6 ml/min, and column temperature of 30° C. The mobile phase contains (per L) 455 ml acetonitrile, 500 ml methanol, 0.2 ml N-ethyldiisopropylamine, 25 ml aqueous solution of 0.2% ammonium acetate, and 50 mg BHT (dissolved in 20 ml of 2-propanol). Compounds are identified and quantified by UV at 448 nm.
Fermentations and analysis were performed as described in Ex. 2, including addition of various concentrations of curcumin.

[2] = tested on: B. trispora; assay: Effect on beta-carotene production with B. trispora in shake flask fermentation (HPLC); format: cell-based, Blakeslea trispora; conditions: for BC: average of two measurements; for Increase BC: compared to control with no curcumin/isoniazid
Method: as §1, §2, §3, §4, §5
Concentration of beta-carotene was measured as described in Example 1, with comparison of different concentrations of curcumin.

[3] = curcumin 0.3% w/v, listed as Curcumin

SMILES: COc1cc(/C=C/C(=O)CC(=O)/C=C/c2ccc(O)c(OC)c2)ccc1O [curcumin]
- increase of percentage of beta-carotene based on total carotenoids ([1]; 0.3% curcumin, compared to fermentations without curcumin): about 10%
- percentage of 7,8-dihydro-beta-carotene based on total carotenoids ([1]; about 0.3 to 1.0% curcumin): about 3%
- reduction of 7,8-dihydro-beta-carotene based on total carotenoids ([1]; about 1.0% (w/v) curcumin, compared to no curcumin): about 68%
- reduction of 7,8-dihydro-beta-carotene based on total carotenoids ([1]; addition of curcumin (amount not specified), compared to fermentation without curcumin): at least 28%
- 7,8-DH [%] of total carotenoids ([1]; curcumin 0.01% w/v): 9.98%
- BC [%] of total carotenoids ([1]; curcumin 0.01% w/v): 81.19%
- 7,8-DH [%] of total carotenoids ([1]; curcumin 0.03% w/v): 6.99%
- BC [%] of total carotenoids ([1]; curcumin 0.03% w/v): 85.59%
- 7,8-DH [%] of total carotenoids ([1]; curcumin 0.1% w/v): 5.79%
- BC [%] of total carotenoids ([1]; curcumin 0.1% w/v): 86.75%
- 7,8-DH [%] of total carotenoids ([1]; curcumin 0.3% w/v): 3.35%
- BC [%] of total carotenoids ([1]; curcumin 0.3% w/v): about 91%
- BC [%] of total carotenoids [1, 3]: 91.44%
- 7,8-DH [%] of total carotenoids ([1]; curcumin 1.0% w/v): 3.12%
- BC [%] of total carotenoids ([1]; curcumin 1.0% w/v): 92.17%
- BC ([2]; curcumin 0.01% w/v in production medium, no isoniazid): 1.74 g/L
- Increase BC ([2]; curcumin 0.01% w/v): 12%
- BC ([2]; curcumin 0.03% w/v in production medium, no isoniazid): 2.45 g/L
- Increase BC ([2]; curcumin 0.03% w/v): 58%
- BC ([2]; curcumin 0.1% w/v in production medium, no isoniazid): 3.48 g/L
- Increase BC ([2]; curcumin 0.1% w/v): 125%
- BC ([2]; curcumin 0.3% w/v in production medium, no isoniazid): 4.99 g/L
- Increase BC ([2]; curcumin 0.3% w/v): more than 220%
- Increase BC [2, 3]: 222%
- BC ([2]; curcumin 1.0% w/v in production medium, no isoniazid): 4.55 g/L
- Increase BC ([2]; curcumin 1.0% w/v): 194%

SMILES: NNC(=O)c1ccncc1 [isoniazid, reference compound]
- increase in the percentage of beta-carotene based on total carotenoids ([1]; addition of 0.28 g/l isoniazid, compared to no isoniazid): less than 10%
- percentage of 7,8-dihydro-beta-carotene based on total carotenoids ([1]; addition of isoniazid (0.28 g/l)): 28.1%
- BC ([2]; isoniazid 0.28 g/l in production medium, no curcumin): 4.17 g/L
